What was measured:
HT-29 [1] = test: Antiproliferative activity against human HT-29 cells at 10 uM after 72 hrs by MTS assay; format: functional; conditions: HT-29, 72 h
Tubulin = Tubulin (Bos taurus, UniProt Q6B856+Q862L2+Q862F3); test: Inhibition of bovine tubulin polymerization after 1 hr by fluorescence spectrometry; format: protein assay
[2] = Growth inhibition of human HL-60(TB) cells at 10 uM after 48 hrs by sulforhodamine B assay; format: functional; conditions: HL-60, 48 h, read-out: GI
[3] = Growth inhibition of human PC3 cells after 48 hrs by sulforhodamine B assay; format: functional; conditions: PC-3, 48 h
U-251 [4] = test: Growth inhibition of human U251 cells at 10 uM after 48 hrs by sulforhodamine B assay; format: functional; conditions: U-251, 48 h, read-out: GI
MDA-MB-468 [5] = test: Growth inhibition of human MDA-MB-468 cells at 10 uM after 48 hrs by sulforhodamine B assay; format: functional; conditions: MDA-MB-468, 48 h, read-out: GI
[6] = Cytotoxicity against human COLO205 cells assessed as cell growth at 10 uM after 48 hrs by sulforhodamine B assay; format: functional; conditions: COLO 205, 48 h, read-out: Activity
A549 [7] = test: Growth inhibition of human A549/ATCC cells at 10 uM after 48 hrs by sulforhodamine B assay; format: functional; conditions: A549, 48 h, read-out: GI
[8] = Growth inhibition of human COLO205 cells after 48 hrs by sulforhodamine B assay; format: functional; conditions: COLO 205, 48 h
[9] = Cytotoxicity against human HL-60(TB) cells assessed as cell growth at 10 uM after 48 hrs by sulforhodamine B assay; format: functional; conditions: HL-60, 48 h, read-out: Activity
[10] = Growth inhibition of human HCT15 cells after 48 hrs by sulforhodamine B assay; format: functional; conditions: HCT-15, 48 h
MDA-MB-435 [11] = test: Growth inhibition of human MDA-MB-435 cells at 10 uM after 48 hrs by sulforhodamine B assay; format: functional; conditions: MDA-MB-435, 48 h, read-out: GI
A498 [12] = test: Growth inhibition of human A498 cells after 48 hrs by sulforhodamine B assay; format: functional; conditions: A498, 48 h
A549 [13] = test: Growth inhibition of human A549/ATCC cells after 48 hrs by sulforhodamine B assay; format: functional; conditions: A549, 48 h
HT-29 [14] = test: Growth inhibition of human HT-29 cells after 48 hrs by sulforhodamine B assay; format: functional; conditions: HT-29, 48 h
[15] = Growth inhibition of human HCT116 cells at 10 uM after 48 hrs by sulforhodamine B assay; format: functional; conditions: HCT-116, 48 h, read-out: GI
[16] = Growth inhibition of human SNB75 cells at 10 uM after 48 hrs by sulforhodamine B assay; format: functional; conditions: SNB-75, 48 h, read-out: GI
A498 [17] = test: Growth inhibition of human A498 cells at 10 uM after 48 hrs by sulforhodamine B assay; format: functional; conditions: A498, 48 h, read-out: GI
K562 [18] = test: Growth inhibition of human K562 cells after 48 hrs by sulforhodamine B assay; format: functional; conditions: K562, 48 h
MDA-MB-435 [19] = test: Growth inhibition of human MDA-MB-435 cells after 48 hrs by sulforhodamine B assay; format: functional; conditions: MDA-MB-435, 48 h
[20] = Growth inhibition of human HCT116 cells after 48 hrs by sulforhodamine B assay; format: functional; conditions: HCT-116, 48 h
NCI-H522 [21] = test: Growth inhibition of human NCI-H522 cells at 10 uM after 48 hrs by sulforhodamine B assay; format: functional; conditions: NCI-H522, 48 h, read-out: GI
MCF7 [22] = test: Growth inhibition of human MCF7 cells at 10 uM after 48 hrs by sulforhodamine B assay; format: functional; conditions: MCF7, 48 h, read-out: GI
SR [23] = test: Growth inhibition of human SR cells after 48 hrs by sulforhodamine B assay; format: functional
NCI-H522 [24] = test: Growth inhibition of human NCI-H522 cells after 48 hrs by sulforhodamine B assay; format: functional; conditions: NCI-H522, 48 h
K562 [25] = test: Growth inhibition of human K562 cells at 10 uM after 48 hrs by sulforhodamine B assay; format: functional; conditions: K562, 48 h, read-out: GI
[26] = Growth inhibition of human NCI-ADR-RES cells at 10 uM after 48 hrs by sulforhodamine B assay; format: functional; conditions: read-out: GI
SK-MEL-5 [27] = test: Growth inhibition of human SK-MEL-5 cells after 48 hrs by sulforhodamine B assay; format: functional; conditions: SK-MEL-5, 48 h
[28] = Growth inhibition of human PC3 cells at 10 uM after 48 hrs by sulforhodamine B assay; format: functional; conditions: PC-3, 48 h, read-out: GI
SR [29] = test: Growth inhibition of human SR cells at 10 uM after 48 hrs by sulforhodamine B assay; format: functional; conditions: read-out: GI
MDA-MB-468 [30] = test: Growth inhibition of human MDA-MB-468 cells after 48 hrs by sulforhodamine B assay; format: functional; conditions: MDA-MB-468, 48 h
[31] = Growth inhibition of human HOP62 cells at 10 uM after 48 hrs by sulforhodamine B assay; format: functional; conditions: HOP-62, 48 h, read-out: GI
MCF7 [32] = test: Growth inhibition of human MCF7 cells after 48 hrs by sulforhodamine B assay; format: functional; conditions: MCF7, 48 h
SK-MEL-5 [33] = test: Growth inhibition of human SK-MEL-5 cells at 10 uM after 48 hrs by sulforhodamine B assay; format: functional; conditions: SK-MEL-5, 48 h, read-out: GI
[34] = Growth inhibition of human SF295 cells at 10 uM after 48 hrs by sulforhodamine B assay; format: functional; conditions: SF-295, 48 h, read-out: GI
[35] = Growth inhibition of human OVCAR3 cells after 48 hrs by sulforhodamine B assay; format: functional; conditions: OVCAR-3, 48 h
[36] = Growth inhibition of human COLO205 cells at 10 uM after 48 hrs by sulforhodamine B assay; format: functional; conditions: COLO 205, 48 h, read-out: GI
HT-29 [37] = test: Growth inhibition of human HT-29 cells at 10 uM after 48 hrs by sulforhodamine B assay; format: functional; conditions: HT-29, 48 h, read-out: GI
[38] = Growth inhibition of human DU145 cells after 48 hrs by sulforhodamine B assay; format: functional; conditions: DU-145, 48 h
U-251 [39] = test: Growth inhibition of human U251 cells after 48 hrs by sulforhodamine B assay; format: functional; conditions: U-251, 48 h
MDA-MB-435 [40] = test: Cytotoxicity against human MDA-MB-435 cells assessed as cell growth at 10 uM after 48 hrs by sulforhodamine B assay; format: functional; conditions: MDA-MB-435, 48 h, read-out: Activity
[41] = Growth inhibition of human DU145 cells at 10 uM after 48 hrs by sulforhodamine B assay; format: functional; conditions: DU-145, 48 h, read-out: GI
[42] = Growth inhibition of human NCI-ADR-RES cells after 48 hrs by sulforhodamine B assay; format: functional
[43] = Growth inhibition of human HCT15 cells at 10 uM after 48 hrs by sulforhodamine B assay; format: functional; conditions: HCT-15, 48 h, read-out: GI
[44] = Growth inhibition of human Caki1 cells after 48 hrs by sulforhodamine B assay; format: functional; conditions: CAKI-1, 48 h
[45] = Growth inhibition of human Caki1 cells at 10 uM after 48 hrs by sulforhodamine B assay; format: functional; conditions: CAKI-1, 48 h, read-out: GI
[46] = Growth inhibition of human HOP62 cells after 48 hrs by sulforhodamine B assay; format: functional; conditions: HOP-62, 48 h
[47] = Growth inhibition of human OVCAR3 cells at 10 uM after 48 hrs by sulforhodamine B assay; format: functional; conditions: OVCAR-3, 48 h, read-out: GI
[48] = Growth inhibition of human SF295 cells after 48 hrs by sulforhodamine B assay; format: functional; conditions: SF-295, 48 h

## COc1ccc(-c2nnc3n(C)c(=O)c4ccccc4n23)cc1
HT-29 [1]
  inhibition at 10 µM: 2%
Tubulin
  IC50: > 10000 nM

## COc1ccc(-c2nnc3n(C)c(=O)c4ccccc4n23)cc1N
[2]
  inhibition of growth at 10 µM: 100%
[3]
  GI50: 2650 nM
U-251 [4]
  inhibition of growth at 10 µM: 81%
MDA-MB-468 [5]
  inhibition of growth at 10 µM: 89%
[6]
  growth at 10 µM: 18%
A549 [7]
  inhibition of growth at 10 µM: 72%
[8]
  GI50: 47 nM
[9]
  growth at 10 µM: 11%
[10]
  GI50: 50 nM
MDA-MB-435 [11]
  inhibition of growth at 10 µM: 100%
A498 [12]
  GI50: 2840 nM
A549 [13]
  GI50: 1470 nM
HT-29 [14]
  GI50: 43 nM
[15]
  inhibition of growth at 10 µM: 76%
[16]
  inhibition of growth at 10 µM: 81%
A498 [17]
  inhibition of growth at 10 µM: 80%
K562 [18]
  GI50: 39 nM
MDA-MB-435 [19]
  GI50: 23 nM
[20]
  GI50: 57 nM
NCI-H522 [21]
  inhibition of growth at 10 µM: 91%
MCF7 [22]
  inhibition of growth at 10 µM: 85%
SR [23]
  GI50: 34 nM
NCI-H522 [24]
  GI50: 31 nM
K562 [25]
  inhibition of growth at 10 µM: 92%
[26]
  inhibition of growth at 10 µM: 83%
SK-MEL-5 [27]
  GI50: 60 nM
[28]
  inhibition of growth at 10 µM: 67%
HT-29 [1]
  inhibition at 10 µM: 95%
SR [29]
  inhibition of growth at 10 µM: 89%
MDA-MB-468 [30]
  GI50: 2330 nM
[31]
  inhibition of growth at 10 µM: 83%
MCF7 [32]
  GI50: 43 nM
SK-MEL-5 [33]
  inhibition of growth at 10 µM: 86%
[34]
  inhibition of growth at 10 µM: 98%
[35]
  GI50: 47 nM
[36]
  inhibition of growth at 10 µM: 100%
Tubulin
  IC50: > 10000 nM
HT-29 [37]
  inhibition of growth at 10 µM: 95%
[38]
  GI50: 3090 nM
U-251 [39]
  GI50: 1630 nM
MDA-MB-435 [40]
  growth at 10 µM: 44%
[41]
  inhibition of growth at 10 µM: 79%
[42]
  GI50: 65 nM
[43]
  inhibition of growth at 10 µM: 78%
[44]
  GI50: 1950 nM
[45]
  inhibition of growth at 10 µM: 65%
[46]
  GI50: 48 nM
[47]
  inhibition of growth at 10 µM: 92%
[48]
  GI50: 50 nM

## COc1cc(-c2nnc3[nH]c(=O)c4ccccc4n23)ccc1O
HT-29 [1]
  inhibition at 10 µM: 0%
Tubulin
  IC50: > 10000 nM

## COc1cc(-c2nnc3n(C)c(=O)c4ccccc4n23)ccc1O
HT-29 [1]
  inhibition at 10 µM: 0%
Tubulin
  IC50: > 10000 nM

## COc1ccc(-c2nnc3[nH]c(=O)c4ccccc4n23)cc1O
HT-29 [1]
  inhibition at 10 µM: 10%
Tubulin
  IC50: 4260 nM

## COc1cc(-c2nnc3n(C)c(=O)c4ccccc4n23)cc(OC)c1OC
HT-29 [1]
  inhibition at 10 µM: 0%
Tubulin
  IC50: > 10000 nM

Source: ChEMBL document CHEMBL3792284, “Synthesis of triazoloquinazolinone based compounds as tubulin polymerization inhibitors and vascular disrupting agents” (Eur J Med Chem, 2016)
